In patent publication US6420387B1, “Farnesyl protein transferase inhibiting (imidazol-5-yl) methyl-2-quinolinone derivatives” (Janssen Pharmaceutica N.V., priority 1995, dated 2002):
Counter-ions that a name gives are not always drawn.

Key:
[1] = tested on: NIH 3T3 cells transformed by the T24 activated human H-ras gene; experiment: Ras-transformed cell phenotype reversion assay; assay type: cell-based, mouse; conditions: NIH3T3; cell counts after 72 hours proliferation, corrected for initial input of 200,000 cells
Excerpt: Insertion of activated oncogenes such as the mutant ras gene into mouse NIH 3T3 cells converts the cells to a transformed phenotype. The cells become tumorigenic, display anchorage independent growth in semi-solid medium and lose contact inhibition. Loss of contact inhibition produces cell cultures which no longer form uniform monolayers. Rather, the cells pile up into multicellular nodules and grow to very high saturation densities in plastic tissue culture dishes. Agents such as protein farnesyl transferase inhibitors which revert the ras transformed phenotype restore the uniform monolayer growth pattern to cells in culture. This reversion is easily monitored by counting the number of cells in tissue culture plates. Transformed cells will achieve higher cell numbers than cells which have reverted to an untransformed phenotype. Compounds which revert the transformed phenotype should produce antitumor effects in tumors bearing ras gene mutations.
Compounds are screened in tissue culture in NIH 3T3 cells transformed by the T24 activated human H-ras gene. Cells are seeded at an initial density of 200,000 cells per well (9.6 cm^2 surface area) in six-well cluster tissue culture plates. Test compounds are immediately added to 3.0 ml cell growth medium in a 3.0 μl volume of DMSO, with a final concentration of DMSO in the cell growth medium of 0.1%. The test compounds are run at concentrations of 5, 10, 50, 100, and 500 nM along with a DMSO treated vehicle control. (In case a high activity is observed at 5 nM, the test compound is tested at even lower concentrations.) The cells are allowed to proliferate for 72 hours. Then the cells are detached in 1.0 ml trypsin-EDTA cell dissociation medium and counted on a Coulter particle counter.
Cell numbers expressed as cells per well are measured using a Coulter Particle Counter.
All cell counts were corrected for the initial cell input density by subtracting 200,000.
Control cell counts=[cell counts from cells incubated with DMSO vehicle −200,000].
Test compound cell counts=[cell counts from cells incubated with test compound −200,000]. [formula]
IC50 (i.e. the test compound concentration required to inhibit enzyme activity by 50%) is calculated if sufficient data are available, summarized in table 11.

[2] = tested on: T24 activated human H-ras gene transformed NIH 3T3 fibroblast cells (T24 cells); experiment: Farnesyl protein transferase inhibitor secondary tumor model; assay type: in vivo; conditions: nude mice with subcutaneous T24 cell tumors, 15 days of treatment
Excerpt: The enzyme farnesyl protein transferase catalyzes the covalent attachment of a farnesyl moiety derived from farnesyl pyrophosphate to the oncogene product p21^ras. This directs p21^ras to attach to plasma membranes. Once attached to plasma membranes, mutant or oncogenic forms of p21^ras will provide a signal for the transformation and uncontrolled growth of malignant tumor cells. Therefore, inhibitors of protein farnesyl transferase will prevent the membrane attachment of p21^ras and inhibit growth of ras-transformed tumors.
Nude mice are inoculated with 1×10^6 of T24 activated human H-ras gene transformed NIH 3T3 fibroblast cells (T24 cells), subcutaneously in the inguinal region. After three days to allow tumors to become established, treatment with test compounds is begun via the oral route. The test compounds are dissolved in a 20% β-cyclodextrin in 0.1 N HCl solution and administered orally as 0.1 ml of compound solution per 10 g mouse body weight. Routinely used doses are 6.25, 12.5 and 25 mg/kg. Body weights and tumor sizes are monitored during the ensuing 15 days of treatment. At the end of treatment, animals are sacrificed and tumors are weighed.
The “mean vehicle treated tumor weight” is defined as the mean tumor weight from 10 to 15 mice […].
The “mean tumor weight” is defined as the mean tumor weight from 10 to 15 mice […]. [formula]

[3] = target: T1, Human farnesyl protein transferase (Homo sapiens, UniProt P49354+P49356); experiment: In vitro assay for inhibition of farnesyl protein transferase (scintillation proximity assay); assay type: biochemical; conditions: concentration producing 50% inhibition of enzyme activity; [3H]-farnesylpyrophosphate and biotinylated lamin B peptide substrates, 60 min at 37° C.
T1 construct: grown as monolayer cell cultures were used as a source of human enzyme; endogenous in cells; host or cells: KHOS (Kirsten virus transformed human osteosarcoma) cells, grown as solid tumors in nude mice or as monolayer cultures; 30-50% ammonium sulfate fraction, then Q Fast Flow Sepharose
Procedure: Human farnesyl protein transferase was prepared essentially as described (Y. Reiss et al., Methods: A Companion to Methods in Enzymology vol 1, 241-245, 1990). Kirsten virus transformed human osteosarcoma (KHOS) cells (American Type Culture Collection, Rockville, Md., USA) grown as solid tumors in nude mice or grown as monolayer cell cultures were used as a source of human enzyme. Briefly, cells or tumors were homogenized in buffer containing 50 mM Tris, 1 mM EDTA, 1 mM EGTA and 0.2 mM phenylmethylsulfonylfluoride (pH 7.5). The homogenates were centrifuged 28,000×g for 60 min and the supernatants collected. A 30-50% ammonium sulfate fraction was prepared, and the resulting precipitate was resuspended in a small (10 to 20 ml) volume of dialysis buffer containing 20 mM Tris 1 mM dithiothreitol and 20 μM ZnCl2. The ammonium sulfate fraction was dialyzed overnight against two changes of the same buffer. The dialyzed material was applied to a 10×1 cm Q Fast Flow Sepharose (Pharmacia LKB Biotechnology Inc., Piscataway, N.J., USA) which had been preequilibrated with 100 ml of dialysis buffer supplemented with 0.05 M NaCl. The column was washed with an additional 50 ml of dialysis buffer plus 0.05 M NaCl followed by a gradient from 0.05 M to 0.25 M NaCl prepared in dialysis buffer. The enzyme activity was eluted with a linear gradient of 0.25 to 1.0 M NaCl prepared in the dialysis buffer. Fractions containing 4 to 5 ml volumes of column eluate were collected and analyzed for farnesyl protein transferase activity. Fractions with enzyme activity were pooled and supplemented with 100 μM ZnCl2. Enzyme samples were stored frozen at −70° C.
The activity of farnesyl protein transferase was measured using the Farnesyl Transferase [^3H] Scintillation Proximity Assay (Amersham International plc., England) under the conditions specified by the manufacturer. To assay for inhibitors of the enzyme, 0.20 μCi of the [^3H]-famesylpyrophosphate substrate and the biotinylated lamin B peptide substrate (biotin-YRASNRSCAIM) were mixed with test compounds in a reaction buffer consisting of 50 mM HEPES, 30 mM MgCl2, 20 mM KCl, 5 mM dithiothreitol, 0.01% Triton X-100. Test compounds were delivered in a 10 μl volume of dimethylsulfoxide (DMSO) to achieve concentrations of 1 and 10 μg/ml in a final volume of 100 μl. The reaction mixture was warmed to 37° C. The enzyme reaction was started by adding 20 μl of diluted human farnesyl protein transferase. Sufficient enzyme preparation was added to produce between 4000 to 15000 cpm of reaction product during the 60 min of reaction incubation at 37° C. Reactions were terminated by the addition of STOP/scintillation proximity bead reagent (Amersham). The reaction product [^3H]-farnesyl-(Cys)-biotin lamin B peptide was captured on the streptavidin linked scintillation proximity bead. The amount of [^3H]-farnesyl-(Cys)-biotin lamin B peptide synthesized in the presence or absence of test compounds was quantified as cpm by counting on a Wallac Model 1480 Microbeta Liquid Scintillation Counter. The cpm of product was considered to be farnesyl protein transferase activity. The protein farnesyl transferase activity observed in the presence of test compound was normalized to farnesyl transferase activity in the presence of 10% DMSO and expressed as per cent inhibition. […] The effects of test compounds in these studies were calculated as IC50 (concentration of test compound producing 50% inhibition of enzyme activity) using the LGICV50 computer program written by the Science Information Division of R. W. Johnson Pharmaceutical Research Institute (Spring House, Pa., USA) on a VAX computer.

melting point | IC50 [3] | SMILES | IC50 [1] | % reduction final tumor weight at a dose of 25 mg/kg bid, po [2]
 |  | Cn1cncc1C(N)(c1ccc(Cl)cc1)c1ccc2c(c1)c(-c1cccc(Cl)c1)cc(=O)n2C (racemic) [Compound 14, (±)-6-[amino(4-chlorophenyl)(1-methyl-1H-imidazol-5-yl)methyl]-4-(3-chlorophenyl)-1-methyl-2(1H)-quinolinone] | 3.8 nM | 66%
154.6 °C |  | COC(c1ccc(Cl)cc1)(c1ccc2c(c1)c(-c1cccc(Cl)c1)cc(=O)n2C)c1cncn1C (racemic) (hydrate or solvate) [Compound 4, (±)-4-(3-chlorophenyl)-6-[(4-chlorophenyl)methoxy(1-methyl-1H-imidazol-5-yl)methyl]-1-methyl-2(1H)-quinolinone ethanedioate(1:1).dihydrate] |  | 
203.9 °C | 4.2 nM | Cn1cncc1C(C)(c1ccc(Cl)cc1)c1ccc2c(c1)c(-c1cccc(Cl)c1)cc(=O)n2C (racemic) [Compound 12, (±)-4-(3-chlorophenyl)-6-[1-(4-chlorophenyl)-1-(1-methyl-1H-imidazol-5-yl)ethyl]-1-methyl-2(1H)-quinolinone.ethanedioate (1:1)] | 66 nM | 
 | 0.39 nM | CCOc1cccc(-c2cc(=O)n(C)c3ccc(C(c4ccc(Cl)cc4)c4cncn4C)cc23)c1 (stereo not shown) [Compound 35, 6-[(4-chlorophenyl)(1-methyl-1H-imidazol-5-yl)methyl]-4-(3-ethoxyphenyl)-1-methyl-2(1H)-quinolinone monohydrochloride.monohydrate] | 3.4 nM | 39%
157.4 °C |  | Cn1cncc1C(c1ccc(Cl)cc1)c1ccc2c(c1)c(-c1cccc(Cl)c1)cc(=O)n2C (racemic) (hydrate or solvate) [Compound 5, (±)-4-(3-chlorophenyl)-6-[(4-chlorophenyl)(1-methyl-1H-imidazol-5-yl)methyl]-1-methyl-2(1H)-quinolinone ethanedioate(1:1).mono-hydrate] |  | 
96.8 °C | 8 nM | Cn1cncc1C(c1ccc(Cl)cc1)c1ccc2c(c1)c(-c1ccccc1)cc(=O)n2C (racemic) [Compound 2, (±)-6-[(4chlorophenyl)(1-methyl-1H-imidazol-5-yl)methyl]-1-methyl-4-phenyl-2(1H)-quinolinone] |  | 
151.3 °C | 2.2 nM | Cn1cncc1C(CC#N)(c1ccc(Cl)cc1)c1ccc2c(c1)c(-c1cccc(Cl)c1)cc(=O)n2C (racemic) [Compound 25, (±)-4-(3-chlorophenyl)-β-(4-chlorophenyl)-1,2-dihydro-1-methyl-β-(1-methyl-1H-imidazol-5-yl)-2-oxo-6-quinolinepropanenitrile] | 86 nM | 
 |  | CC(=O)NC(c1ccc(Cl)cc1)(c1ccc2c(c1)c(-c1cccc(Cl)c1)cc(=O)n2C)c1cncn1C.O=C(O)C(=O)O (racemic) [Compound 56, (±)-N-[(4-chlorophenyl)[4-(3-chlorophenyl)-1,2-dihydro-1-methyl-2-oxo-6-quinolinyl](1-methyl-1H-imidazol-5-yl)methyl]acetamide ethanedioate (1:1)] | 23 nM | 42%
174.6 °C |  | CCCCn1cncc1C(O)(c1ccc(Cl)cc1)c1ccc2c(c1)c(-c1cccc(Cl)c1)cc(=O)n2C (racemic) [Compound 9, (±)-4-(3-chlorophenyl)-6-[(1-butyl-1H-imidazol-5-yl)(4-chlorophenyl)hydroxymethyl]-1-methyl-2(1H)-quinolinone] |  | 
 | 1.6 nM | CCOc1cccc(-c2cc(=O)n(C)c3ccc(C(O)(c4ccc(Cl)cc4)c4cncn4C)cc23)c1 (stereo not shown) [Compound 34, 6-[(4-chlorophenyl)hydroxy(1-methyl-1H-imidazol-5-yl)methyl]-4-(3-ethoxyphenyl)-1-methyl-2(1H)-quinolinone] | 3 nM | 56%
233.6 °C | 1.7 nM | Cn1cncc1C(O)(c1ccc(Cl)cc1)c1ccc2c(c1)c(-c1cccc(Cl)c1)cc(=O)n2C (racemic) [Compound 3, (±)-4-(3-chlorophenyl)-6-[(4-chlorophenyl)hydroxy(1-methyl-1H-imidazol-5-yl)methyl]-1-methyl-2(1H)-quinolinone] |  | 
 | 0.62 nM | Cn1cncc1C(c1ccc(Cl)cc1)(c1ccc2c(c1)c(-c1cccc(Cl)c1)cc(=O)n2C)n1ccnc1 (stereo not shown) [Compound 60] | 70 nM | 
149.9 °C |  | Cn1cnc(C(c2ccc(Cl)cc2)c2ccc3c(c2)c(-c2ccccc2)cc(=O)n3C)c1 (racemic) [Compound 44, (±)-6-[(4-chlorophenyl)(1-methyl-1H-imidazol-4-yl)methyl]-1-methyl-4-phenyl-2(1H)-quinolinone] |  | 
 | 2.8 nM | CCOC(=O)CC(c1ccc(Cl)cc1)(c1ccc2c(c1)c(-c1cccc(Cl)c1)cc(=O)n2C)c1cncn1C (stereo not shown) [Compound 58] | 96 nM | 
